US9828379B2 (priority 2013, dated 2017)

Key:
[1] = target: T1, MAGL (Mus musculus, UniProt O35678); test: biochemical; conditions: mouse; in vitro competitive ABPP; read-out: Mouse (IC50 value, nM) MAGL
T1 sequence (O35678 1-303): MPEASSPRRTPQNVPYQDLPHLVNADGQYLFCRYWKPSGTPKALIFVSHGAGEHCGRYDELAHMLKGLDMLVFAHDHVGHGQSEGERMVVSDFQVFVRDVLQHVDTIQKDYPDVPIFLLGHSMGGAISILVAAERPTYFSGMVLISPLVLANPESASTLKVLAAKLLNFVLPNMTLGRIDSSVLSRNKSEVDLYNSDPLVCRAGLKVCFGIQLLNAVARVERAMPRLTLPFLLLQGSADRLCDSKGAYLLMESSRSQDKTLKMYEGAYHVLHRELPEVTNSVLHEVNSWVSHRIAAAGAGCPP

[2] = target: T2, FAAH (Mus musculus, UniProt O08914); test: biochemical; conditions: in vitro competitive ABPP
T2 sequence (O08914 1-579): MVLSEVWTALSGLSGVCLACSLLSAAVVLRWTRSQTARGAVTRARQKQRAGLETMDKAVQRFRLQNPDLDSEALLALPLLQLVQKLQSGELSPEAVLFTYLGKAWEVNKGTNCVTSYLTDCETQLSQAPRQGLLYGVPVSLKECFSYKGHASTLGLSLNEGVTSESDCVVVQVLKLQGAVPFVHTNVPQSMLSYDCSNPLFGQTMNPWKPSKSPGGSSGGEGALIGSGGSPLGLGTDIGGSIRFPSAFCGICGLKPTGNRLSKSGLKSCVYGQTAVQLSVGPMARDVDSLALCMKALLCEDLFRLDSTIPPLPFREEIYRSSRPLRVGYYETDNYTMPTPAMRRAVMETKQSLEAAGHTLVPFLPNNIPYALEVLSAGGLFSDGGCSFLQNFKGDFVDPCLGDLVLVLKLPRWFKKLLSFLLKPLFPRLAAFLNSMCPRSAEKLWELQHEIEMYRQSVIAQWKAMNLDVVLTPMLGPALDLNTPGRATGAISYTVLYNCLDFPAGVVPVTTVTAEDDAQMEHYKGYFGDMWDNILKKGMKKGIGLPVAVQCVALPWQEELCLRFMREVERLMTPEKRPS

[3] = target: T1, MAGL; test: In vitro competitive activity-based protein profiling (Table 2, % inhibition at 1 μM); type: biochemical; conditions: read-out: % Inhibition at 1 μM MAGL
Method: After 30 min, FP—Rh (1.0 μL, 50 μM in DMSO) was added and the mixture was incubated for another 30 min at 37° C. Reactions were quenched with SDS loading buffer (50 μL-4×) and run on SDS-PAGE.
Cell lysates were diluted with mock proteomes for use in competitive ABPP experiments.

[4] = target: T3, ABHD6 (Mus musculus, UniProt Q8R2Y0); test: as above; type: biochemical; conditions: read-out: % Inhibition at 1 μM ABHD6
T3 sequence (Q8R2Y0 1-336): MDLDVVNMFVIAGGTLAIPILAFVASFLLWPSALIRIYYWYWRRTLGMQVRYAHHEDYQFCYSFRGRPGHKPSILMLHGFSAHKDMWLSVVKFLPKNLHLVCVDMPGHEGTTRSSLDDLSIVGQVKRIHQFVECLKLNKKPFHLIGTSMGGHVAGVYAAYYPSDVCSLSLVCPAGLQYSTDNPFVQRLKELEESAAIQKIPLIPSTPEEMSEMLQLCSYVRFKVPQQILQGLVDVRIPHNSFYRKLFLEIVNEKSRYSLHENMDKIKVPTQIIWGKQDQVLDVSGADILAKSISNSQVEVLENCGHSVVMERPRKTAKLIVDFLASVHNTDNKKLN

[5] = target: T2, FAAH; test: as above; type: biochemical; conditions: read-out: % Inhibition at 1 μM FAAH
[6] = target: T3, ABHD6; test: biochemical; conditions: in vitro competitive ABPP

Row | SMILES | IC50 [1] | IC50 [2] | inhibition at 1 µM [3] | inhibition at 1 µM [4] | inhibition at 1 µM [5] | IC50 [6]
1 | O=C(OC(C(F)(F)F)C(F)(F)F)N1CC2CN(Cc3cc(CN4CCCCC4)cc(OC(F)(F)F)c3)CC2C1 (stereo not drawn) [Example 184, 1,1,1,3,3,3-hexafluoropropan-2-yl 5-(3-(piperidin-1-ylmethyl)-5-(trifluoromethoxy)benzyl)hexahydropyrrolo[3,4-c]pyrrole-2(1H)-carboxylate] | 100 to 1000 nM | 1000 to 10000 nM | > 75% | < 25% | < 25% | 1000 to 10000 nM
2 | CC1COCCN1c1cc(F)ccc1CN1CC2CN(C(=O)OC(C(F)(F)F)C(F)(F)F)CC2C1 (stereo not drawn) [Example 16, 1,1,1,3,3,3-Hexafluoropropan-2-yl 5-[[4-fluoro-2-(3-methylmorpholin-4-yl)phenyl]methyl]-octahydropyrrolo[3,4-c]pyrrole-2-carboxylate] | < 100 nM | 1000 to 10000 nM | > 75% | < 25% | < 25% | 1000 to 10000 nM
3 | O=C(ON1C(=O)CCC1=O)N1CC2CN(Cc3ccc(Cl)cc3N3CCOC4CCCC43)CC2C1 (stereo not drawn) [Example 82, 2,5-Dioxopyrrolidin-1-yl 5-(4-chloro-2-(hexahydrocyclopenta[b][1,4]oxazin-4(4aH)-yl)benzyl)hexahydropyrrolo[3,4-c]pyrrole-2(1H)-carboxylate] | 100 to 1000 nM | 1000 to 10000 nM | 25 to 75% | 25 to 75% | < 25% | 1000 to 10000 nM
4 | CC(C)c1ccc(CN2CC3CN(C(=O)OC(C(F)(F)F)C(F)(F)F)CC3C2)c(N2CCCC2)c1 (stereo not drawn) [Example 23, 1,1,1,3,3,3-Hexafluoropropan-2-yl 5-[[4-(propan-2-yl)-2-(pyrrolidin-1-yl)phenyl]methyl]-octahydropyrrolo[3,4-c]pyrrole-2-carboxylate] | 100 to 1000 nM | 1000 to 10000 nM | > 75% | < 25% | < 25% | 1000 to 10000 nM
5 | CCn1ncc(CN2CC3CN(C(=O)OC(C(F)(F)F)C(F)(F)F)CC3C2)c1C(=O)NCC1CC1 (stereo not drawn) [Example 179, 1,1,1,3,3,3-hexafluoropropan-2-yl 5-((5-((cyclopropylmethyl)carbamoyl)-1-ethyl-1H-pyrazol-4-yl)methyl)hexahydropyrrolo[3,4-c]pyrrole-2(1H)-carboxylate] | < 100 nM | > 10000 nM | > 75% | 25 to 75% | < 25% | 100 to 1000 nM
6 | O=C(OC(C(F)(F)F)C(F)(F)F)N1CC2CN(Cc3ccc(Cl)cc3N3CCCC3)CC2C1 (stereo not drawn) [Example 19, 1,1,1,3,3,3-Hexafluoropropan-2-yl 5-[[4-chloro-2-(pyrrolidin-1-yl)phenyl]methyl]-octahydropyrrolo[3,4-c]pyrrole-2-carboxylate] | < 100 nM | 1000 to 10000 nM | > 75% | < 25% | 25 to 75% | 1000 to 10000 nM
7 | Cc1cc(CN2CC3CN(C(=O)OC(C(F)(F)F)C(F)(F)F)CC3C2)n(C(C)C)n1 (stereo not drawn) [Example 59, 1,1,1,3,3,3-Hexafluoropropan-2-yl 5-[[3-methyl-1-(propan-2-yl)-1H-pyrazol-5-yl]methyl]-octahydropyrrolo[3,4-c]pyrrole-2-carboxylate] | 100 to 1000 nM | 1000 to 10000 nM | > 75% | 25 to 75% | 25 to 75% | 1000 to 10000 nM
8 | Cc1cccc(CN2CC3CN(C(=O)OC(C(F)(F)F)C(F)(F)F)CC3C2)c1N1CCN(C)CC1 (stereo not drawn) [Example 147, 1,1,1,3,3,3-hexafluoropropan-2-yl 5-[[3-methyl-2-(4-methylpiperazin-1-yl)phenyl]methyl]-octahydropyrrolo[3,4-c]pyrrole-2-carboxylate] | 100 to 1000 nM | > 10000 nM | > 75% | < 25% | < 25% | > 10000 nM
9 | CC1COCCN1c1ccc(CN2CC3CN(C(=O)OC(C(F)(F)F)C(F)(F)F)CC3C2)c(Cl)c1 (stereo not drawn) [Example 27, 1,1,1,3,3,3-Hexafluoropropan-2-yl 5-[[2-chloro-4-(3-methylmorpholin-4-yl)phenyl]methyl]-octahydropyrrolo[3,4-c]pyrrole-2-carboxylate] | < 100 nM | 1000 to 10000 nM | > 75% | < 25% | 25 to 75% | 1000 to 10000 nM
10 | O=C(OC(C(F)(F)F)C(F)(F)F)N1CC2CN(Cc3ccc(Cl)cc3N3Cc4cccnc4C3)CC2C1 (stereo not drawn) [Example 32, 1,1,1,3,3,3-Hexafluoropropan-2-yl 5-[(4-chloro-2-[5H,6H,7H-pyrrolo[3,4-b]pyridin-6-yl]phenyl)methyl]-octahydropyrrolo[3,4-c]pyrrole-2-carboxylate] | < 100 nM | 1000 to 10000 nM | > 75% | 25 to 75% | 25 to 75% | 1000 to 10000 nM
11 | Cc1ccc(CN2CC3CN(C(=O)OC(C(F)(F)F)C(F)(F)F)CC3C2)cc1-c1ccccc1 (stereo not drawn) [Example 206, 1,1,1,3,3,3-hexafluoropropan-2-yl 5-((6-methyl-[1,1′-biphenyl]-3-yl)methyl)hexahydropyrrolo[3,4-c]pyrrole-2(1H)-carboxylate] | 100 to 1000 nM | 1000 to 10000 nM | > 75% | 25 to 75% | 25 to 75% | 1000 to 10000 nM
12 | CCn1cc(CN2CC3CN(C(=O)OC(C(F)(F)F)C(F)(F)F)CC3C2)c(C(=O)NC2CC2)n1 (stereo not drawn) [Example 77, 1,1,1,3,3,3-Hexafluoropropan-2-yl 5-((3-(cyclopropylcarbamoyl)-1-ethyl-1H-pyrazol-4-yl)methyl)hexahydropyrrolo[3,4-c]pyrrole-2(1H)-carboxylate] | 100 to 1000 nM | > 10000 nM | > 75% | < 25% | < 25% | 1000 to 10000 nM
13 | Cc1c(CN2CC3CN(C(=O)OC(C(F)(F)F)C(F)(F)F)CC3C2)cccc1N1CCC2(CCOC2)C1 (stereo not drawn) [Example 46, 1,1,1,3,3,3-Hexafluoropropan-2-yl 5-[(2-methyl-3-[2-oxa-7-azaspiro[4.4]nonan-7-yl]phenyl)methyl]-octahydropyrrolo[3,4-c]pyrrole-2-carboxylate] | < 100 nM | 1000 to 10000 nM | > 75% | < 25% | 25 to 75% | 1000 to 10000 nM
14 | O=C(OC(C(F)(F)F)C(F)(F)F)N1CC2CN(Cc3cc(CN4CCCC4)cc(OC(F)(F)F)c3)CC2C1 (stereo not drawn) [Example 185, 1,1,1,3,3,3-hexafluoropropan-2-yl 5-(3-(pyrrolidin-1-ylmethyl)-5-(trifluoromethoxy)benzyl)hexahydropyrrolo[3,4-c]pyrrole-2(1H)-carboxylate] | 100 to 1000 nM | > 10000 nM | > 75% | < 25% | < 25% | 1000 to 10000 nM
15 | O=C(OC(C(F)(F)F)C(F)(F)F)N1CC2CN(Cc3ccc(Cl)cc3N3CC4COCC4C3)CC2C1 (stereo not drawn) [Example 208, 1,1,1,3,3,3-hexafluoropropan-2-yl 5-(4-chloro-2-(tetrahydro-1H-furo[3,4-c]pyrrol-5(3H)-yl)benzyl)hexahydropyrrolo[3,4-c]pyrrole-2(1H)-carboxylate] | 100 to 1000 nM | 1000 to 10000 nM | > 75% | < 25% | < 25% | 1000 to 10000 nM
